“And” between values parts separate entries of the source, which are not always exact repeats. Equal entries are not always repeated.
Test system: Arabidopsis wild-type (WT) seedlings
Assay: Stomatal development bioassay, seedlings in liquid culture
Format: in vivo
Details: for reduction of total number of stomata and meristemoids / decrease of the number of stomata from mock / increase of the number of meristemoids from mock: WT (Fig. 1e); for meristemoid density, mean / stomata density, mean / total (stomata+meristemoid) density, mean: mean of n=8 (Fig. 1e); for Number of stomata per 1 mm2 of cotyledon abaxial epidermis: single seedlings n=8 (Fig. 2c); for effect on stomatal development (in words): WT seedlings
Procedure: Arabidopsis accession Columbia (Col-0) was used as wild-type. […] Their genotype and transcript reduction were confirmed. The presence of transgenes/mutant alleles were confirmed by genotyping. For liquid culture with Stomidazolone (AYSJ929, compound 3), the analogs (AYSJ1059 (compound 5) and AYSJ1061 (compound 6)), degraded compound lzx103 (compound 4), and SIM3* (compound 7), all compounds were dissolved in dimethyl sulfoxide (DMSO, Molecular biology grade, Fujifilm Wako, Japan 046-21981), Col-0 seeds were sown in 96-well plates (TL5003; True Line) containing 95 μL of 1/2 MS media containing 0.5% sucrose with rotary shaking at 140 rpm under continuous light at 22 °C. Five μL of compounds were dissolved in DMSO at 10 mM and diluted with liquid 1/2 MS media to 1 mM and added on 1-day-old seedlings (final concentration, 50 μM). Seedlings were incubated for 8 days, and at day 9 seedling abaxial cotyledons were observed through confocal microscopy. For liquid culture of scrm-D_S343 and scrm-D_S423, 1/2 MS liquid media without sucrose was used. For the solid culture, 0, 20, 50 or 100 μM Stomidazolone were solidified with low-melting agarose (5805S, PrimeGelTM Agarose LMT 1-20 K, TAKARA Bio). Briefly, 1/2 MS salt, 0.5% sucrose, and 0.8% low melting agarose were mixed in water and autoclaved. After cooling the medium at around 30 °C, Stomidazolone (500x, dissolved in DMSO) was added and poured into 90 mm petri dishes (Asnol Petri Dish JP φ90 x 15 mm, 3-1491-01, AS ONE). Col-0 seeds were sown on Stomidazolone-containing 1/2 MS agarose media and grown under continuous light for 9 days.
For confocal microscopy, cell peripheries of seedlings were visualized with propidium iodide (Sigma, P4170). Images were acquired using LSM800 or LSM700 (Zeiss) using a 20x lens. The GFP, YFP reporter and PI signals were detected with excitation at 488 nm and an emission filter of 410 to 546 nm, at 488 nm and an emission filter of 410 to 546 nm, and with excitation at 561 nm and 582–617 nm emission range, respectively. Raw data were collected with 1024 × 1024 pixel images. For qualitative image presentation, Adobe Photoshop CC was used to trim and uniformly adjust the contrast/brightness.
For quantitative analysis of the abaxial leaf epidermis, confocal images were taken on the days after germination as indicated in the Figure legends. Preparation of images was done as described previously[32],[70]. For counting epidermal cell types, stomatal density, stomatal precursor cells (meristemoids), total stomata-lineage cells (stomata and meristemoids) were calculated by counting cell types in an area of 0.4 mm^2 (0.63 mm × 0.63 mm) and plotted as per mm^2. A series of Z-stack confocal images was obtained to obtain images covering the epidermis and capturing GFP/YFP signal from the reporter lines. The area and the number of epidermal cells were quantified by using FIJI-ImageJ. Statistical analyses were performed using R ver. 4.0.2. Sample sizes (n) are indicated and defined in each legend. For the multiple sample comparison, 1-way ANOVA was performed followed by a post hoc Tukey HSD test. For the two-sample comparison, Student’s T-test was performed. Graphs were generated using R ggplot2 package. For all boxplots, each box represents IQR (interquartile range), in which top, middle line, and bottom indicating 75, 50, and 25 percentiles, respectively, and the bar representing maximum to minimal values. Each magenta dot represents jittered individual data point. The datapoints that go beyond the bar are outliers, which are indicated as black dots. If the data point is greater than Q3 + 1.5*IQR (above the third quartile is greater than 1.5 times of the interquartile range) or less than Q1 − 1.5*IQR, that data point is classified as outlier. The color of Boxplot graph was based on ColorBrewer.org. The value of n, the number of each experiment or samples, the means of error bars, and how statistical significance was defined are indicated in a relevant figure legend. […]

[1] = 50 μM, WT, single seedlings n=8 (Fig. 4b)
[2] = 50 μM, cotyledon abaxial epidermis, individual seedlings

O=C1C(c2ccccc2)=NC(NS(=O)(=O)c2ccccc2)(c2ccccc2)N1S(=O)(=O)c1ccccc1 (stereo not shown) [Stomidazolone]
reduction of total number of stomata and meristemoids (20 μM): 14.46%
Total (stomata+meristemoid) density (20 uM, WT cotyledon abaxial epidermis, 9 dag, single seedlings n=8 (Fig. 1e)): 156 per mm^2 and 173 per mm^2 and 163 per mm^2 and 168 per mm^2 and 107 per mm^2 and 154 per mm^2 and 144 per mm^2 and 124 per mm^2
Stomata density (20 uM, WT, 9 dag, single seedlings n=8 (Fig. 1e)): 115 per mm^2 and 141 per mm^2 and 144 per mm^2 and 132 per mm^2 and 88 per mm^2 and 127 per mm^2
meristemoid density, mean (20 uM, WT, mock mean 7.875): 24.875 per mm^2
stomata density, mean (20 uM, WT, mock mean 165.75): 124.25 per mm^2
total (stomata+meristemoid) density, mean (20 uM, WT, mock mean 173.75): 148.625 per mm^2
decrease of the number of stomata from mock (50 μM): 59.50%
increase of the number of meristemoids from mock (50 μM): 801.5%
reduction of total number of stomata and meristemoids (50 μM): 25.03%
Total (stomata+meristemoid) density (50 uM, WT, 9 dag, single seedlings n=8 (Fig. 1e)): 166 per mm^2 and 149 per mm^2 and 124 per mm^2 and 132 per mm^2 and 146 per mm^2 and 100 per mm^2 and 115 per mm^2 and 110 per mm^2
Number of stomata per 1 mm2 of cotyledon abaxial epidermis (50 μM, WT, 9 dag): 70 per 1 mm2 and 109 per 1 mm2 and 90 per 1 mm2 and 124 per 1 mm2 and 129 per 1 mm2 and 112 per 1 mm2 and 117 per 1 mm2
meristemoid density, mean (50 uM, WT): 63.125 per mm^2
stomata density, mean (50 uM, WT): 67.125 per mm^2
total (stomata+meristemoid) density, mean (50 uM, WT): 130.25 per mm^2
Stomata density [1]: 90 per mm2 and 117 per mm2 and 102 per mm2 and 75 per mm2 and 107 per mm2 and 148 per mm2
Total (stomata+meristemoid) density [1]: 104 per mm2 and 136 per mm2 and 119 per mm2 and 102 per mm2 and 87 per mm2 and 124 per mm2 and 168 per mm2 and 158 per mm2
Meristemoid density (50 μM, WT, single seedlings n=8 (Fig. 4b, replotted 4k)): 15 per mm2 and 19 per mm2 and 17 per mm2 and 12 per mm2 and 10 per mm2
Meristemoid density [2]: 0 per mm2 and 2 per mm2 and 10 per mm2 and 5 per mm2 and 7 per mm2
Stomata density [2]: 214 per mm2 and 241 per mm2 and 216 per mm2 and 228 per mm2 and 194 per mm2 and 250 per mm2 and 182 per mm2 and 207 per mm2
Total cell density [2]: 214 per mm2 and 243 per mm2 and 226 per mm2 and 233 per mm2 and 199 per mm2 and 253 per mm2 and 190 per mm2 and 209 per mm2
decrease of the number of stomata from mock (100 μM): 69.53%
increase of the number of meristemoids from mock (100 μM): 647.6%
Total (stomata+meristemoid) density (100 uM, WT, 9 dag, single seedlings n=8 (Fig. 1e)): 120 per mm^2 and 85 per mm^2 and 71 per mm^2 and 112 per mm^2 and 95 per mm^2 and 122 per mm^2
meristemoid density, mean (100 uM, WT): 51 per mm^2
stomata density, mean (100 uM, WT): 50.5 per mm^2
total (stomata+meristemoid) density, mean (100 uM, WT): 101.25 per mm^2
effect on overall seedling growth (liquid culture, even at 100 μM (Fig. 1f)): does not affect

O=C1C(c2ccccc2)=NC(NS(=O)(=O)c2ccccc2)(c2ccc(Br)cc2)N1S(=O)(=O)c1ccccc1 (stereo not shown) [AYSJ1061]
effect on stomatal development (in words) (50 μM, liquid culture): did not affect the number of stomata
Number of stomata per 1 mm2 of cotyledon abaxial epidermis (50 μM, WT, 9 dag): 160 per 1 mm2 and 190 per 1 mm2 and 148 per 1 mm2 and 192 per 1 mm2 and 173 per 1 mm2 and 255 per 1 mm2 and 236 per 1 mm2

Cc1ccc(C2(NS(=O)(=O)c3ccccc3)N=C(c3ccccc3)C(=O)N2S(=O)(=O)c2ccccc2)cc1 (stereo not shown) [AYSJ1059]
effect on stomatal development (in words) (50 μM, liquid culture): did not affect the number of stomata
Number of stomata per 1 mm2 of cotyledon abaxial epidermis (50 μM, WT, 9 dag): 202 per 1 mm2 and 209 per 1 mm2 and 187 per 1 mm2 and 245 per 1 mm2 and 192 per 1 mm2 and 182 per 1 mm2 and 199 per 1 mm2 and 175 per 1 mm2
